Measurements as given in patent US20240115594A1, “DINUCLEOTIDES AND THEIR USE IN TREATING CANCER” (MAIA Biotechnology, Inc., priority 2022, published 2024).

What was measured:
Format in all cases: cell-based
Hep3B = assay: IC50 determination / cytotoxicity in human cell lines (Hep3B); conditions: Hep3B (liver; childhood HCC), 96 h; for % max. toxicity @ 50 μM2: 50 μM; for IC50: 10.000 cells per well, read-out: IC50 [μM] relative to untreated cells
Experimental: (§1) Anticancer activity of the dinucleotides, (formulated and administered in PBS solutions), was evaluated in vitro in various cancer cell lines, according to a commonly used procedures for assessment of compounds cytotoxicity, as out lined in the following publications: Mender, I., Gryaznov, S., Dikmen, Z. G., Wright, W. E., & Shay, J. W. (2015). Induction of telomere dysfunction mediated by the telomerase substrate precursor 6-thio-2′-deoxyguanosine. Cancer Discovery, 5, 82-95; Mender et al., (2020). Telomere Stress Potentiates STING-Dependent Anti-tumor Immunity. Cancer Cell, 38, 400-411.

Panc-1 = assay: IC50 determination / cytotoxicity in human cell lines (Panc-1); conditions: 96 h; for % max. toxicity @ 50 μM5: 50 μM; for IC50: 10.000 cells per well, read-out: IC50 [μM] relative to untreated cells
Experimental: as §1

HepG2 = assay: IC50 determination / cytotoxicity in human cell lines (HepG2); conditions: HepG2 (liver; hepatoblastoma), 96 h; for % max. toxicity @ 50 μM3: 50 μM; for IC50: 10.000 cells per well, read-out: IC50 [μM] relative to untreated cells
Experimental: as §1

NCI-H23 = assay: IC50 determination / cytotoxicity in human cell lines (NCI-H23); conditions: NCI-H23 (lung; adenocarcinoma), 96 h; for % max. toxicity @ 50 μM4: 50 μM; for IC50: 10.000 cells per well, read-out: IC50 [μM] relative to untreated cells
Experimental: as §1

HEK293 = assay: IC50 determination / cytotoxicity in human cell lines (HEK293); conditions: HEK293 (Kidney), 96 h; for IC50: 10.000 cells per well, 96 well plates, read-out: IC50 [μM] relative to untreated cells
Experimental: as §1

| Compound | % max. toxicity @ 50 μM2 (Hep3B) [%] | IC50 (Hep3B) [µM] | % max. toxicity @ 50 μM5 (Panc-1) [%] | IC50 (Panc-1) [µM] | % max. toxicity @ 50 μM3 (HepG2) [%] | IC50 (HepG2) [µM] | % max. toxicity @ 50 μM4 (NCI-H23) [%] | IC50 (NCI-H23) [µM] | % max. toxicity @ 50 μM (HEK293) [%] | IC50 (HEK293) [µM] |
| --- | --- | --- | --- | --- | --- | --- | --- | --- | --- | --- |
| Nc1nc2c(ncn2[C@H]2C[C@@H](O)[C@@H](COP(=O)(O)O[C@@H]3C[C@H](n4cnc5c(=S)[nH]c(N)nc54)O[C@@H]3CO)O2)c(=S)[nH]1 [Compound 1] | 92 | 0.68 | 95 | 0.18 | 94 | 0.15 | 93 | 0.07 | 94 | 0.28 |
| Nc1nc2c(ncn2[C@H]2C[C@@H](OP(=O)(O)OC[C@H]3O[C@@H](n4cc(F)c(=O)[nH]c4=O)C[C@H]3O)[C@@H](CO)O2)c(=S)[nH]1 [Compound 5] | 87 | 0.09 | 96 | 0.25 | 92 | 0.04 | 94 | 0.01 | 94 | 0.02 |
| Nc1nc2c(ncn2[C@H]2C[C@@H](O)[C@@H](COP(=O)(O)O[C@@H]3C[C@H](n4cc(F)c(=O)[nH]c4=O)O[C@@H]3CO)O2)c(=S)[nH]1 [Compound 6] | 82 | 0.06 | 88 | 0.25 | 89 | 0.06 | 92 | 0.02 | 93 | 0.01 |
| Nc1nc2c(ncn2[C@H]2C[C@@H](OP(O)(=S)OC[C@H]3O[C@@H](n4cc(F)c(=O)[nH]c4=O)C[C@H]3O)[C@@H](CO)O2)c(=S)[nH]1 (some centres unmarked) [Compound 11] | 62 | 1.12 | 80 | 5.12 | 71 | 0.61 | 79 | 1.11 | 86 | 0.63 |
| Nc1nc2c(ncn2[C@H]2C[C@@H](O)[C@@H](COP(O)(=S)O[C@@H]3C[C@H](n4cc(F)c(=O)[nH]c4=O)O[C@@H]3CO)O2)c(=S)[nH]1 (some centres unmarked) [Compound-12] | 59 | 3.68 | 48 | > 50 | 49 | 1.15 | 81 | 2.55 | 86 | 0.61 |
